Reference: ChEMBL document CHEMBL1201862, “PubChem BioAssay data set” (2004)
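Test compounds were applied to cells in 96-well plates for 48 hours at 5 doses. GI50 marks 50% less growth.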 Calls of active or inactive are those of the source. Cut-off read from the data, not from the text of the source: active = GI50 up to about 1.1 µM and inactive = higher.

Legend:
Experiment in all cases: NCI anticancer screen, dose series, 48 h
UACC-257 = system: UACC-257
UACC-62 = system: UACC-62
NCI-H522 = system: NCI-H522
SK-OV-3 = system: SK-OV-3
SK-MEL-28 = system: SK-MEL-28
NCI/ADR-RES = system: NCI/ADR-RES
SF-539 = system: SF-539
Malme-3M = system: Malme-3M
K562 = system: K562
NCI-H23 = system: NCI-H23
MDA-MB-435 = system: MDA-MB-435
HOP-92 = system: HOP-92
LOX IMVI = system: LOX IMVI
A498 = system: A498
SNB-19 = system: SNB-19
BT-549 = system: BT-549
CAKI-1 = system: CAKI-1
SR = system: SR
HCT-15 = system: HCT-15
HOP-62 = system: HOP-62
T47D = system: T47D
OVCAR-3 = system: OVCAR-3
SF-268 = system: SF-268
MDA-MB-231 = system: MDA-MB-231
UO-31 = system: UO-31
ACHN = system: ACHN
Hs-578T = system: Hs-578T
SW-620 = system: SW-620
CCRF-CEM = system: CCRF-CEM
SK-MEL-5 = system: SK-MEL-5
M14 = system: M14
SF-295 = system: SF-295
HL-60 = system: HL-60
TK-10 = system: TK-10
DU-145 = system: DU-145
SNB-75 = system: SNB-75
KM12 = system: KM12
786-0 = system: 786-0
PC-3 = system: PC-3
OVCAR-5 = system: OVCAR-5
HT-29 = system: HT-29
MDA-N = system: MDA-N
U-251 = system: U-251
OVCAR-8 = system: OVCAR-8
RPMI-8226 = system: RPMI-8226
EKVX = system: EKVX
MOLT-4 = system: MOLT-4
A549 = system: A549
IGROV-1 = system: IGROV-1
SK-MEL-2 = system: SK-MEL-2
NCI-H460 = system: NCI-H460
OVCAR-4 = system: OVCAR-4
COLO 205 = system: COLO 205
SN12C = system: SN12C
RXF 393 = system: RXF 393
HCC 2998 = system: HCC 2998
MCF7 = system: MCF7
HCT-116 = system: HCT-116
NCI-H226 = system: NCI-H226

## CCCc1c2c3ccccc3nc-2nc2ccccn12
UACC-257
  GI50: > 100 µM (inactive)
UACC-62
  GI50: 72.3 µM (inactive)
NCI-H522
  GI50: > 100 µM (inactive)
SK-OV-3
  GI50: > 100 µM (inactive)
SK-MEL-28
  GI50: > 100 µM (inactive)
NCI/ADR-RES
  GI50: > 100 µM (inactive)
SF-539
  GI50: > 100 µM (inactive)
Malme-3M
  GI50: 61.7 µM (inactive)
K562
  GI50: 52.6 µM (inactive)
NCI-H23
  GI50: 0.863 µM (active)
MDA-MB-435
  GI50: 94.4 µM (inactive)
HOP-92
  GI50: 36.5 µM (inactive)
LOX IMVI
  GI50: 41.4 µM (inactive)
A498
  GI50: > 100 µM (inactive)
SNB-19
  GI50: > 100 µM (inactive)
BT-549
  GI50: > 100 µM (inactive)
CAKI-1
  GI50: > 100 µM (inactive)
SR
  GI50: 49.1 µM (inactive)
HCT-15
  GI50: > 100 µM
HOP-62
  GI50: 25.4 µM (inactive)
T47D
  GI50: > 100 µM (inactive)
OVCAR-3
  GI50: 56 µM (inactive)
SF-268
  GI50: 24.4 µM (inactive)
MDA-MB-231
  GI50: 72.1 µM (inactive)
UO-31
  GI50: 56.8 µM (inactive)
ACHN
  GI50: 46.7 µM (inactive)
Hs-578T
  GI50: > 100 µM (inactive)
SW-620
  GI50: 36.4 µM (inactive)
CCRF-CEM
  GI50: > 100 µM (inactive)
SK-MEL-5
  GI50: > 100 µM (inactive)
M14
  GI50: 26.7 µM (inactive)
SF-295
  GI50: 49.8 µM (inactive)
HL-60
  GI50: 35.6 µM (inactive)
TK-10
  GI50: 52.7 µM (inactive)
DU-145
  GI50: > 100 µM (inactive)
SNB-75
  GI50: > 100 µM (inactive)
KM12
  GI50: 49.4 µM (inactive)
786-0
  GI50: 28.4 µM (inactive)
PC-3
  GI50: 64.6 µM (inactive)
OVCAR-5
  GI50: 25.2 µM (inactive)
HT-29
  GI50: 43.6 µM (inactive)
MDA-N
  GI50: 74.5 µM (inactive)
U-251
  GI50: 63.7 µM (inactive)
OVCAR-8
  GI50: 71.8 µM (inactive)
RPMI-8226
  GI50: 41.9 µM (inactive)
EKVX
  GI50: > 100 µM (inactive)
MOLT-4
  GI50: 67.5 µM (inactive)
A549
  GI50: 83.4 µM (inactive)
IGROV-1
  GI50: 63.5 µM (inactive)
SK-MEL-2
  GI50: > 100 µM (inactive)
NCI-H460
  GI50: 32.8 µM (inactive)
OVCAR-4
  GI50: 50.5 µM (inactive)
COLO 205
  GI50: 97.7 µM (inactive)
SN12C
  GI50: 73.5 µM (inactive)

## [O-][N+]1=C2CCC/C(=N/O)C2(O)C2CCCCC21N1CCOCC1 (stereo not drawn)
UACC-257
  GI50: > 100 µM (inactive)
UACC-62
  GI50: > 100 µM (inactive)
NCI-H522
  GI50: > 100 µM (inactive)
SK-OV-3
  GI50: > 100 µM (inactive)
SK-MEL-28
  GI50: > 100 µM (inactive)
NCI/ADR-RES
  GI50: > 100 µM (inactive)
SF-539
  GI50: > 100 µM (inactive)
Malme-3M
  GI50: > 100 µM (inactive)
K562
  GI50: > 100 µM (inactive)
NCI-H23
  GI50: > 100 µM (inactive)
MDA-MB-435
  GI50: > 100 µM (inactive)
LOX IMVI
  GI50: > 100 µM (inactive)
SNB-19
  GI50: > 100 µM (inactive)
BT-549
  GI50: > 100 µM (inactive)
CAKI-1
  GI50: > 100 µM (inactive)
SR
  GI50: > 100 µM (inactive)
HCT-15
  GI50: > 100 µM
HOP-62
  GI50: > 100 µM (inactive)
T47D
  GI50: > 100 µM (inactive)
OVCAR-3
  GI50: > 100 µM (inactive)
SF-268
  GI50: > 100 µM (inactive)
MDA-MB-231
  GI50: > 100 µM (inactive)
UO-31
  GI50: > 100 µM (inactive)
ACHN
  GI50: > 100 µM (inactive)
Hs-578T
  GI50: > 100 µM (inactive)
SW-620
  GI50: > 100 µM (inactive)
CCRF-CEM
  GI50: > 100 µM (inactive)
RXF 393
  GI50: 8.02 µM (inactive)
SK-MEL-5
  GI50: > 100 µM (inactive)
M14
  GI50: > 100 µM (inactive)
SF-295
  GI50: > 100 µM (inactive)
TK-10
  GI50: > 100 µM (inactive)
SNB-75
  GI50: > 100 µM (inactive)
HCC 2998
  GI50: > 100 µM (inactive)
MCF7
  GI50: > 100 µM (inactive)
HCT-116
  GI50: > 100 µM (inactive)
KM12
  GI50: > 100 µM (inactive)
786-0
  GI50: > 100 µM (inactive)
PC-3
  GI50: > 100 µM (inactive)
NCI-H226
  GI50: > 100 µM (inactive)
OVCAR-5
  GI50: > 100 µM (inactive)
HT-29
  GI50: > 100 µM (inactive)
MDA-N
  GI50: > 100 µM (inactive)
U-251
  GI50: > 100 µM (inactive)
OVCAR-8
  GI50: > 100 µM (inactive)
EKVX
  GI50: > 100 µM (inactive)
MOLT-4
  GI50: > 100 µM (inactive)
A549
  GI50: > 100 µM (inactive)
IGROV-1
  GI50: > 100 µM (inactive)
SK-MEL-2
  GI50: > 100 µM (inactive)
NCI-H460
  GI50: > 100 µM (inactive)
OVCAR-4
  GI50: > 100 µM (inactive)
COLO 205
  GI50: > 100 µM (inactive)
SN12C
  GI50: > 100 µM (inactive)
